The values below come from ChEMBL document CHEMBL3045771, “Structure-Activity Relationships of Enantiomers of the Azole Fungicide Ipconazole and Its Related Compounds” (1998).

Converted amounts (≈) assume the structure as drawn.

What all share (type): functional
One assay has as its system Cucumis sativus. Nature of the assay: Inhibition of Cucumis sativus (cucumber) growth assessed as stem length of first leaf of seedlings measured as growth rate at 125 ug/ml for 24 hr relative to control. Also noted: scale not given: the % may be the effect or the level left.
A further assay concerns Triticum aestivum. Nature of the assay: Inhibition of Triticum aestivum (wheat) Nourin 64 growth assessed as first leaf sheath length of seedlings measured as growth rate at 125 ug/ml for 24 hr relative to control. Set-up: scale not given: the % may be the effect or the level left.
A further assay deals with Rhizoctonia solani. Nature of the assay: Antifungal activity against Rhizoctonia solani on potato sucrose agar medium at 28 or 20 degC for 2 or 3 days.
A further assay deals with Sclerotinia sclerotiorum. In words: Antifungal activity against Sclerotinia sclerotiorum on potato sucrose agar medium at 28 or 20 degC for 2 or 3 days.
The test system of the next assay is Pyricularia oryzae. In words: Antifungal activity against Magnaporthe oryzae on potato sucrose agar medium at 28 or 20 degC for 2 or 3 days.
The subject of assay [1] is Colletotrichum gloeosporioides. Nature of the assay: Antifungal activity against Glomerella cingulata on potato sucrose agar medium at 28 or 20 degC for 2 or 3 days.
Another assay has as its system Monilinia fructicola. In words: Antifungal activity against Monilinia fructicola on potato sucrose agar medium at 28 or 20 degC for 2 or 3 days.
The next assay relates to Fusarium fujikuroi. Nature of the assay: Antifungal activity against Fusarium fujikuroi on potato sucrose agar medium at 28 or 20 degC for 2 or 3 days.
Assay [2] has as its system Fusarium oxysporum f. sp. cucumerinum. In words: Antifungal activity against Fusarium oxysporum f. sp. cucumerinum on potato sucrose agar medium at 28 or 20 degC for 2 or 3 days.
The next assay deals with Alternaria mali. Nature of the assay: Antifungal activity against Alternaria mali on potato sucrose agar medium at 28 or 20 degC for 2 or 3 days.
The subject of the next assay is Botrytis cinerea. Nature of the assay: Antifungal activity against Botryotinia fuckeliana on potato sucrose agar medium at 28 or 20 degC for 2 or 3 days.
The next assay deals with Cercospora beticola. In words: Antifungal activity against Cercospora beticola on potato sucrose agar medium at 28 or 20 degC for 2 or 3 days.
The subject of the next assay is Bipolaris oryzae. Nature of the assay: Antifungal activity against Bipolaris oryzae on potato sucrose agar medium at 28 or 20 degC for 2 or 3 days.
The next assay relates to Colletotrichum lagenaria. In words: Antifungal activity against Colletotrichum lagenaria on potato sucrose agar medium at 28 or 20 degC for 2 or 3 days.

By MIC is commonly meant the least concentration at which growth counts as inhibited. In the case of `O[C@]1(Cn2cncn2)CCC[C@@H]1Cc1ccc(Cl)cc1`, the Activity in the assay with Cucumis sativus is 80%; in the assay on Triticum aestivum, 41%. Further, the MIC against Rhizoctonia solani is over 100 mg/L; against Sclerotinia sclerotiorum it was 13 mg/L (≈ 44.6 µM); against Pyricularia oryzae, 6.3 mg/L (≈ 21.6 µM); in assay [1], 25 mg/L (≈ 85.7 µM); against Monilinia fructicola, under 0.2 mg/L; with Fusarium fujikuroi it was 13 mg/L (≈ 44.6 µM). Moreover, the MIC was over 100 mg/L in assay [2]; over 100 mg/L against Alternaria mali; 3.1 mg/L (≈ 10.6 µM) against Botrytis cinerea; over 100 mg/L against Cercospora beticola; 25 mg/L (≈ 85.7 µM) in the assay with Bipolaris oryzae; over 100 mg/L against Colletotrichum lagenaria.

Take `O[C@@]1(Cn2cncn2)CCC[C@H]1Cc1ccc(Cl)cc1`: the Activity in the assay on Cucumis sativus is 90%; in the assay on Triticum aestivum it was 94%. Besides, the MIC against Rhizoctonia solani was over 100 mg/L; against Sclerotinia sclerotiorum, over 100 mg/L; against Pyricularia oryzae, 100 mg/L (≈ 343 µM); in assay [1], over 100 mg/L; against Monilinia fructicola it was 13 mg/L (≈ 44.6 µM); against Fusarium fujikuroi it was over 100 mg/L. Further, the MIC (in [2]; against Alternaria mali; in the assay with Botrytis cinerea; with Cercospora beticola; in the assay on Bipolaris oryzae; against Colletotrichum lagenaria) was over 100 mg/L each time.

Turning to `C[C@H]1CC[C@@H](Cc2ccc(Cl)cc2)[C@]1(O)Cn1cncn1`, the Activity in the assay on Cucumis sativus worked out at 97%; in the assay on Triticum aestivum, 92%. Besides, the MIC against Rhizoctonia solani is over 100 mg/L; in the assay on Sclerotinia sclerotiorum it was over 100 mg/L; against Pyricularia oryzae, 50 mg/L (≈ 164 µM); in assay [1], over 100 mg/L; with Monilinia fructicola it was 13 mg/L (≈ 42.5 µM); in the assay with Fusarium fujikuroi, over 100 mg/L. Moreover, the MIC in [2] was over 100 mg/L; in the assay with Alternaria mali, over 100 mg/L; with Botrytis cinerea, 100 mg/L (≈ 327 µM); in the assay with Cercospora beticola, over 100 mg/L; against Bipolaris oryzae it was over 100 mg/L; against Colletotrichum lagenaria, over 100 mg/L.
